Test results published in the supplement of paper PMC6045584.
± gives the standard deviation of the averaged measurements.

Tests used:
[1] = compound: Cn1cc(C2=Nc3cc(NC(=O)C(N)C4CCCCC4)cc4c3C2=CNNC4=O)cn1; assay: surviving fraction relative to DMSO-only wells; higher = less growth inhibition; details: exposure time: 5 days
Summary of the method: (§1)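 Log-phase tumour cell lines, 250–500 cells per well in 384-well plates, received inhibitors at 0.5, 1, 5, 10, 50, 100, 500 and 1000 nM continuously for five days, starting 24 hours after seeding. Viability was quantified with CellTiter-Glo luminescence and normalised to the median of DMSO-only wells to give surviving fraction. Three screens were run per line, and a line stayed in only with replicate Pearson r >0.7 and median Z' >0.3.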

CANERTINIB = compound: C=CC(=O)Nc1cc2c(Nc3ccc(F)c(Cl)c3)ncnc2cc1OCCCN1CCOCC1 [CANERTINIB]; assay: as above; details: exposure time: 5 days
Summary of the method: as §1

Test System	surviving fraction ([1]; 0.5 nM)	surviving fraction ([1]; 1 nM)	surviving fraction ([1]; 5 nM)	surviving fraction ([1]; 10 nM)	surviving fraction ([1]; 50 nM)	surviving fraction ([1]; 100 nM)	surviving fraction ([1]; 500 nM)	surviving fraction ([1]; 1000 nM)	surviving fraction (CANERTINIB; 0.5 nM)	surviving fraction (CANERTINIB; 1 nM)	surviving fraction (CANERTINIB; 5 nM)	surviving fraction (CANERTINIB; 10 nM)	surviving fraction (CANERTINIB; 50 nM)	surviving fraction (CANERTINIB; 100 nM)	surviving fraction (CANERTINIB; 500 nM)	surviving fraction (CANERTINIB; 1000 nM)
MDAMB436 BREAST	0.847 ± 0.079	0.911 ± 0.097	0.871 ± 0.05	0.852 ± 0.11	0.813 ± 0.051	0.577 ± 0.031	0.284 ± 0.02	0.228 ± 0.011	0.798 ± 0.056	0.875 ± 0.064	0.854 ± 0.065	0.839 ± 0.061	0.956 ± 0.094	0.98 ± 0.13	0.839 ± 0.054	0.742 ± 0.067
MDAMB453 BREAST	0.971 ± 0.011	1.01 ± 0.034	0.999 ± 0.026	1.01 ± 0.04	0.784 ± 0.044	0.293 ± 0.013	0.179 ± 0.019	0.206 ± 0.011	1.04 ± 0.026	1 ± 0.016	1.01 ± 0.058	1.01 ± 0.071	1.02 ± 0.047	1.07 ± 0.026	0.823 ± 0.0089	0.637 ± 0.067
MFM223 BREAST	1.15 ± 0.029	1.1 ± 0.012	1.09 ± 0.11	1.05 ± 0.069	0.748 ± 0.047	0.408 ± 0.036	0.226 ± 0.018	0.193 ± 0.025	0.817 ± 0.075	0.898 ± 0.12	0.84 ± 0.14	0.808 ± 0.01	0.958 ± 0.077	1 ± 0.034	0.874 ± 0.013	0.794 ± 0.029
MG63 BONE	0.99 ± 0.033	1.02 ± 0.021	1.03 ± 0.024	1.05 ± 0.047	1.02 ± 0.058	0.822 ± 0.0046	0.0643 ± 0.0084	0.101 ± 0.011	0.947 ± 0.015	0.919 ± 0.016	0.9893 ± 0.007	0.971 ± 0.013	1.02 ± 0.014	1.02 ± 0.011	0.993 ± 0.025	1 ± 0.022
MHM BONE	0.998 ± 0.018	1.01 ± 0.032	1.051 ± 0.01	1.031 ± 0.002	1.12 ± 0.021	1.15 ± 0.034	0.394 ± 0.034	0.183 ± 0.02	0.981 ± 0.051	0.983 ± 0.038	1.03 ± 0.054	1 ± 0.051	0.9877 ± 0.0076	0.953 ± 0.021	0.903 ± 0.019	0.863 ± 0.018
NCIH441 LUNG	0.975 ± 0.037	1.01 ± 0.018	1.01 ± 0.05	1.06 ± 0.084	1.04 ± 0.024	0.895 ± 0.078	0.401 ± 0.031	0.319 ± 0.0068	0.951 ± 0.059	1.02 ± 0.02	1.01 ± 0.029	1.03 ± 0.07	0.918 ± 0.1	0.923 ± 0.0095	0.736 ± 0.098	0.635 ± 0.086
NOS1 BONE	1 ± 0.16	0.948 ± 0.081	1.11 ± 0.1	1.05 ± 0.1	0.813 ± 0.075	0.872 ± 0.064	0.339 ± 0.009	0.195 ± 0.013	0.909 ± 0.16	0.939 ± 0.12	0.957 ± 0.094	1.04 ± 0.14	1.04 ± 0.11	1.1 ± 0.1	0.585 ± 0.052	0.333 ± 0.02
NY BONE	1 ± 0.015	0.984 ± 0.0061	1.03 ± 0.024	0.95 ± 0.042	0.458 ± 0.014	0.182 ± 0.014	0.0577 ± 0.0055	0.0377 ± 0.0055	0.892 ± 0.042	0.905 ± 0.031	0.998 ± 0.027	0.956 ± 0.028	0.965 ± 0.052	0.955 ± 0.01	0.825 ± 0.034	0.69 ± 0.009
OS25HAL BONE	1.014 ± 0.01	1.03 ± 0.042	1.005 ± 0.0044	1.012 ± 0.0078	0.978 ± 0.045	0.984 ± 0.012	0.0757 ± 0.017	0.0387 ± 0.0011	0.898 ± 0.0053	0.879 ± 0.013	0.886 ± 0.003	0.893 ± 0.042	1.014 ± 0.0056	1.03 ± 0.019	1.01 ± 0.072	0.981 ± 0.092
